Tests used:
Test in all cases: Test C preemergence
Format in all cases: in vivo
[1] = tested on: crabgrass, large (large crabgrass, Digitaria sanguinalis); settings: for Plant response rating (scale of 0 to 100), Crabgrass, Large: 0 is no effect, 100 is complete control
Method in brief: (§1)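 Preemergence application to seeds in loam/sand soil, or foliar (postemergence) application to plants 2–18 cm tall in peat moss/vermiculite medium; surfactant-containing non-phytotoxic solvent vehicle; greenhouse. Visual injury vs controls at 13–15 d; 0 = no effect, 100 = complete control.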

[2] = tested on: soybean (Glycine max); settings: for Plant response rating (scale of 0 to 100), Soybean: 0 is no effect, 100 is complete control
Method in brief: as §1

[3] = tested on: Galium (catchweed bedstraw, Galium aparine); settings: for Plant response rating (scale of 0 to 100), Galium: 0 is no effect, 100 is complete control
Method in brief: as §1

[4] = tested on: ragweed (common ragweed, Ambrosia elatior); settings: for Plant response rating (scale of 0 to 100), Ragweed: 0 is no effect, 100 is complete control
Method in brief: as §1

[5] = tested on: barnyardgrass (Echinochloa crus-galli); settings: for Plant response rating (scale of 0 to 100), Barnyardgrass: 0 is no effect, 100 is complete control
Method in brief: as §1

[6] = tested on: waterhemp (common waterhemp, Amaranthus rudis); settings: for Plant response rating (scale of 0 to 100), Waterhemp: 0 is no effect, 100 is complete control
Method in brief: as §1

[7] = tested on: velvetleaf (Abutilon theophrasti); settings: for Plant response rating (scale of 0 to 100), Velvetleaf: 0 is no effect, 100 is complete control
Method in brief: as §1

[8] = tested on: wheat (winter wheat, Triticum aestivum); settings: for Plant response rating (scale of 0 to 100), Wheat: 0 is no effect, 100 is complete control
Method in brief: as §1

[9] = tested on: blackgrass (Alopecurus myosuroides); settings: for Plant response rating (scale of 0 to 100), Blackgrass: 0 is no effect, 100 is complete control
Method in brief: as §1

[10] = tested on: lambsquarters (Chenopodium album); settings: for Plant response rating (scale of 0 to 100), Lambsquarters: 0 is no effect, 100 is complete control
Method in brief: as §1

[11] = tested on: foxtail, giant (giant foxtail, Setaria faberii); settings: for Plant response rating (scale of 0 to 100), Foxtail, Giant: 0 is no effect, 100 is complete control
Method in brief: as §1

[12] = tested on: johnsongrass (Sorghum halepense); settings: for Plant response rating (scale of 0 to 100), Johnsongrass: 0 is no effect, 100 is complete control
Method in brief: as §1

[13] = tested on: nutsedge, yellow (yellow nutsedge, Cyperus esculentus); settings: for Plant response rating (scale of 0 to 100), Nutsedge, Yellow: 0 is no effect, 100 is complete control
Method in brief: as §1

[14] = tested on: morningglory (Ipomoea coccinea); settings: for Plant response rating (scale of 0 to 100), Morningglory: 0 is no effect, 100 is complete control
Method in brief: as §1

[15] = tested on: pigweed (Amaranthus retroflexus); settings: for Plant response rating (scale of 0 to 100), Pigweed: 0 is no effect, 100 is complete control
Method in brief: as §1

[16] = tested on: corn (Zea mays); settings: for Plant response rating (scale of 0 to 100), Corn: 0 is no effect, 100 is complete control
Method in brief: as §1

[17] = tested on: oilseed rape (Brassica napus); settings: for Plant response rating (scale of 0 to 100), Oilseed Rape: 0 is no effect, 100 is complete control
Method in brief: as §1

[18] = tested on: ryegrass, Italian (Italian ryegrass, Lolium multiflorum); settings: for Plant response rating (scale of 0 to 100), Ryegrass, Italian: 0 is no effect, 100 is complete control
Method in brief: as §1

[19] = 62 g ai/ha, scale 0 to 100, 0 no effect, 100 complete control

CN1C[C@H](c2ccc(C(F)(F)F)cc2)[C@@H](C(=O)Nc2cccc(F)c2F)C1=O [Compound 623, (3S,4S)—N-(2,3-difluorophenyl)-1-methyl-2-oxo-4-[4-(trifluoromethyl)phenyl]-3-pyrrolidinecarboxamide]
Plant response rating (scale of 0 to 100), Crabgrass, Large ([1]; 8 g ai/ha): 90
Plant response rating (scale of 0 to 100), Crabgrass, Large ([1]; 16 g ai/ha): 90
Plant response rating (scale of 0 to 100), Crabgrass, Large ([1]; 31 g ai/ha): 95
Plant response rating, Crabgrass, Large [1, 19]: 95
Plant response rating (scale of 0 to 100), Soybean ([2]; 8 g ai/ha): 0
Plant response rating (scale of 0 to 100), Soybean ([2]; 16 g ai/ha): 0
Plant response rating (scale of 0 to 100), Soybean ([2]; 31 g ai/ha): 0
Plant response rating, Soybean [2, 19]: 0
Plant response rating (scale of 0 to 100), Galium ([3]; 8 g ai/ha): 90
Plant response rating (scale of 0 to 100), Galium ([3]; 16 g ai/ha): 85
Plant response rating (scale of 0 to 100), Galium ([3]; 31 g ai/ha): 85
Plant response rating, Galium [3, 19]: 90
Plant response rating (scale of 0 to 100), Ragweed ([4]; 8 g ai/ha): 0
Plant response rating (scale of 0 to 100), Ragweed ([4]; 16 g ai/ha): 20
Plant response rating (scale of 0 to 100), Ragweed ([4]; 31 g ai/ha): 45
Plant response rating, Ragweed [4, 19]: 75
Plant response rating (scale of 0 to 100), Barnyardgrass ([5]; 8 g ai/ha): 90
Plant response rating (scale of 0 to 100), Barnyardgrass ([5]; 16 g ai/ha): 90
Plant response rating (scale of 0 to 100), Barnyardgrass ([5]; 31 g ai/ha): 90
Plant response rating, Barnyardgrass [5, 19]: 95
Plant response rating (scale of 0 to 100), Waterhemp ([6]; 8 g ai/ha): 45
Plant response rating (scale of 0 to 100), Waterhemp ([6]; 16 g ai/ha): 75
Plant response rating (scale of 0 to 100), Waterhemp ([6]; 31 g ai/ha): 85
Plant response rating, Waterhemp [6, 19]: 90
Plant response rating (scale of 0 to 100), Velvetleaf ([7]; 8 g ai/ha): 0
Plant response rating (scale of 0 to 100), Velvetleaf ([7]; 16 g ai/ha): 0
Plant response rating (scale of 0 to 100), Velvetleaf ([7]; 31 g ai/ha): 5
Plant response rating, Velvetleaf [7, 19]: 60
Plant response rating (scale of 0 to 100), Wheat ([8]; 8 g ai/ha): 20
Plant response rating (scale of 0 to 100), Wheat ([8]; 16 g ai/ha): 0
Plant response rating (scale of 0 to 100), Wheat ([8]; 31 g ai/ha): 40
Plant response rating, Wheat [8, 19]: 35
Plant response rating (scale of 0 to 100), Blackgrass ([9]; 8 g ai/ha): 0
Plant response rating (scale of 0 to 100), Blackgrass ([9]; 16 g ai/ha): 40
Plant response rating (scale of 0 to 100), Blackgrass ([9]; 31 g ai/ha): 60
Plant response rating, Blackgrass [9, 19]: 90
Plant response rating (scale of 0 to 100), Lambsquarters ([10]; 8 g ai/ha): 10
Plant response rating (scale of 0 to 100), Lambsquarters ([10]; 16 g ai/ha): 30
Plant response rating (scale of 0 to 100), Lambsquarters ([10]; 31 g ai/ha): 60
Plant response rating, Lambsquarters [10, 19]: 50
Plant response rating (scale of 0 to 100), Foxtail, Giant ([11]; 8 g ai/ha): 85
Plant response rating (scale of 0 to 100), Foxtail, Giant ([11]; 16 g ai/ha): 90
Plant response rating (scale of 0 to 100), Foxtail, Giant ([11]; 31 g ai/ha): 90
Plant response rating, Foxtail, Giant [11, 19]: 90
Plant response rating (scale of 0 to 100), Johnsongrass ([12]; 8 g ai/ha): 50
Plant response rating (scale of 0 to 100), Johnsongrass ([12]; 16 g ai/ha): 15
Plant response rating (scale of 0 to 100), Johnsongrass ([12]; 31 g ai/ha): 50
Plant response rating, Johnsongrass [12, 19]: 70
Plant response rating (scale of 0 to 100), Nutsedge, Yellow ([13]; 8 g ai/ha): 0
Plant response rating (scale of 0 to 100), Nutsedge, Yellow ([13]; 16 g ai/ha): 0
Plant response rating (scale of 0 to 100), Nutsedge, Yellow ([13]; 31 g ai/ha): 0
Plant response rating, Nutsedge, Yellow [13, 19]: 0
Plant response rating (scale of 0 to 100), Morningglory ([14]; 8 g ai/ha): 0
Plant response rating (scale of 0 to 100), Morningglory ([14]; 16 g ai/ha): 0
Plant response rating (scale of 0 to 100), Morningglory ([14]; 31 g ai/ha): 25
Plant response rating, Morningglory [14, 19]: 15
Plant response rating (scale of 0 to 100), Pigweed ([15]; 8 g ai/ha): 75
Plant response rating (scale of 0 to 100), Pigweed ([15]; 16 g ai/ha): 85
Plant response rating (scale of 0 to 100), Pigweed ([15]; 31 g ai/ha): 85
Plant response rating, Pigweed [15, 19]: 85
Plant response rating (scale of 0 to 100), Corn ([16]; 8 g ai/ha): 10
Plant response rating (scale of 0 to 100), Corn ([16]; 16 g ai/ha): 30
Plant response rating (scale of 0 to 100), Corn ([16]; 31 g ai/ha): 60
Plant response rating, Corn [16, 19]: 65
Plant response rating (scale of 0 to 100), Oilseed Rape ([17]; 8 g ai/ha): 80
Plant response rating (scale of 0 to 100), Oilseed Rape ([17]; 16 g ai/ha): 0
Plant response rating (scale of 0 to 100), Oilseed Rape ([17]; 31 g ai/ha): 30
Plant response rating, Oilseed Rape [17, 19]: 85
Plant response rating (scale of 0 to 100), Ryegrass, Italian ([18]; 8 g ai/ha): 0
Plant response rating (scale of 0 to 100), Ryegrass, Italian ([18]; 16 g ai/ha): 20
Plant response rating (scale of 0 to 100), Ryegrass, Italian ([18]; 31 g ai/ha): 45
Plant response rating, Ryegrass, Italian [18, 19]: 55
